In brackets after ≈: the same amount, converted by molar mass. Like-named read-outs stand apart in the source and are kept apart here.
Experiments:
Solubility = type: physicochemical
[1] = tested on: Enterobacter cloacae GN336; assay: MIC by the agar dilution method; type: cell-based
Source text: (§1) The minimum inhibitory concentration (MIC) of saccharocin and 3'-oxysaccharocin by the agar dilution method are shown in Table 1.

Proteus rettgeri ACR = assay: MIC by the agar dilution method; type: cell-based; conditions: Providencia rettgeri
Source text: as §1

[2] = tested on: Streptococcus pyogenes N.Y.5; assay: MIC by the agar dilution method; type: cell-based
Source text: as §1

[3] = tested on: Bacillus subtilis ATCC6633; assay: MIC by the agar dilution method; type: cell-based
Source text: as §1

[4] = tested on: Staphylococcus aureus ATCC 6538P; assay: MIC by the agar dilution method; type: cell-based; conditions: ATCC6538P
Source text: as §1

Proteus morganii 0239 = assay: MIC by the agar dilution method; type: cell-based; conditions: Morganella morganii
Source text: as §1

Shigella sonnei E33 = assay: MIC by the agar dilution method; type: cell-based
Source text: as §1

[5] = tested on: Escherichia coli NIHJ-JC2; assay: MIC by the agar dilution method; type: cell-based; conditions: NIHJJC2
Source text: as §1

[6] = tested on: Enterobacter aerogenes 055; assay: MIC by the agar dilution method; type: cell-based; conditions: Klebsiella aerogenes
Source text: as §1

[7] = tested on: Citrobacter freundie GN346; assay: MIC by the agar dilution method; type: cell-based
Source text: as §1

[8] = tested on: Klebsiella pneumoniae ATCC 10031; assay: MIC by the agar dilution method; type: cell-based; conditions: ATCC10031
Source text: as §1

[9] = tested on: Pseudomonas aeruginosa ML4561 Rm3164-1; assay: MIC by the agar dilution method; type: cell-based; conditions: ML4561RM31641
Source text: as §1

[10] = tested on: Escherichia coli W3630RGN14; assay: MIC by the agar dilution method; type: cell-based
Source text: as §1

[11] = tested on: Staphylococcus epidermidis ap-al-1; assay: MIC by the agar dilution method; type: cell-based; conditions: APAL1
Source text: as §1

[12] = tested on: Salmonella enteritidis gaertner; assay: MIC by the agar dilution method; type: cell-based; conditions: Salmonella enterica
Source text: as §1

Serratia marcescens = assay: MIC by the agar dilution method; type: cell-based
Source text: as §1

[13] = tested on: Pseudomonas aeruginosa 1946; assay: MIC by the agar dilution method; type: cell-based
Source text: as §1

Escherichia coli W3630 = assay: MIC by the agar dilution method; type: cell-based
Source text: as §1

[14] = tested on: Staphylococcus aureus 0119; assay: MIC by the agar dilution method; type: cell-based
Source text: as §1

[15] = tested on: Staphylococcus aureus MS27; assay: MIC by the agar dilution method; type: cell-based
Source text: as §1

Pseudomonas putida 1842 = assay: MIC by the agar dilution method; type: cell-based
Source text: as §1

[16] = tested on: Pseudomonas aeruginosa ML4561 Rm3166; assay: MIC by the agar dilution method; type: cell-based; conditions: ML4561RM3166
Source text: as §1

Pseudomonas aeruginosa = assay: MIC by the agar dilution method; type: cell-based; conditions: Pseudomonas aeruginosa (no strain code)
Source text: as §1

[17] = tested on: Pseudomonas aeruginosa ML4561 RP4; assay: MIC by the agar dilution method; type: cell-based; conditions: ML4561RP4
Source text: as §1

[18] = tested on: Pseudomonas aeruginosa 2512; assay: MIC by the agar dilution method; type: cell-based
Source text: as §1

[19] = tested on: Pseudomonas martfiriae 1850; assay: MIC by the agar dilution method; type: cell-based
Source text: as §1

[20] = tested on: Pseudomonas aeruginosa ML4561; assay: MIC by the agar dilution method; type: cell-based
Source text: as §1

[21] = tested on: Saccharopolyspora sp. AC 3440; assay: Resistance on antibiotics of the producing strain; type: cell-based
[22] = acetone, benzene, ethyl acetate
[23] = 336 h, resistance of producing strain AC 3440, 37° C., 14 days, read-out: MIC
[24] = resistance of producing strain AC 3440, 37° C., 14 days

Molecule: CNC1C(OC2OC(CO)C(O)C(O)C2O)OC2C(O)C(N)C(OC3C(N)CC(N)C(O)C3O)OC2C1O (stereo not drawn) [3'-oxysaccharocin]
- Solubility (Solubility; [22]): insoluble
- Solubility (Solubility; water): soluble
- MIC [1]: 12.6 µg/mL (≈ 22.6 µM)
- MIC (Proteus rettgeri ACR): 12.5 µg/mL (≈ 22.5 µM)
- MIC [2]: 50 µg/mL (≈ 89.8 µM)
- MIC [3]: 3.1 µg/mL (≈ 5.57 µM)
- MIC [4]: 25 µg/mL (≈ 44.9 µM)
- MIC (Proteus morganii 0239): 12.5 µg/mL (≈ 22.5 µM)
- MIC (Shigella sonnei E33): 25 µg/mL (≈ 44.9 µM)
- MIC [5]: 12.5 µg/mL (≈ 22.5 µM)
- MIC [6]: 12.5 µg/mL (≈ 22.5 µM)
- MIC [7]: 12.5 µg/mL (≈ 22.5 µM)
- MIC [8]: 12.5 µg/mL (≈ 22.5 µM)
- MIC [9]: 50 µg/mL (≈ 89.8 µM)
- MIC [10]: 12.5 µg/mL (≈ 22.5 µM)
- MIC [11]: 12.5 µg/mL (≈ 22.5 µM)
- MIC [12]: 12.5 µg/mL (≈ 22.5 µM)
- MIC (Serratia marcescens): 12.5 µg/mL (≈ 22.5 µM)
- MIC [13]: > 50 µg/mL
- MIC (Escherichia coli W3630): 3.1 µg/mL (≈ 5.57 µM)
- MIC [14]: 12.5 µg/mL (≈ 22.5 µM)
- MIC [15]: 25 µg/mL (≈ 44.9 µM)
- MIC (Pseudomonas putida 1842): 50 µg/mL (≈ 89.8 µM)
- MIC [16]: 25 µg/mL (≈ 44.9 µM)
- MIC (Pseudomonas aeruginosa): 50 µg/mL (≈ 89.8 µM)
- MIC [17]: 50 µg/mL (≈ 89.8 µM)
- MIC [18]: 50 µg/mL (≈ 89.8 µM)
- MIC [19]: > 50 µg/mL
- MIC [20]: 50 µg/mL (≈ 89.8 µM)

Molecule: NC[C@H]1O[C@H](O[C@H]2[C@H](O)[C@@H](O[C@H]3O[C@H](CO)[C@@H](O)[C@H](N)[C@H]3O)[C@H](N)C[C@@H]2N)[C@H](O)[C@@H](O)[C@@H]1O [Kanamycin]
- MIC ([21]; 336 h): > 100 µg/mL

Molecule: CCCC(=O)OC1C(C)OC(OC2C(C)OC(OC3C(CC=O)CC(C)C(O)C=CC=CCC(C)OC(=O)CC(O)C3OC)C(O)C2N(C)C)CC1(C)O (stereo not drawn) [Leucomycin A5]
- MIC [21, 23]: > 100 µg/mL

Molecule: NC[C@@H]1O[C@H](O[C@H]2[C@@H](O)[C@H](O[C@@H]3[C@@H](O)[C@H](N)C[C@H](N)[C@H]3O[C@H]3O[C@H](CO)[C@@H](O)[C@H](O)[C@H]3N)O[C@@H]2CO)[C@H](N)[C@@H](O)[C@@H]1O [Paromomycin]
- MIC [21, 23]: 50 µg/mL (≈ 81.2 µM)

Molecule: CO[C@H]1/C=C/O[C@@]2(C)Oc3c(C)c(O)c4c(O)c(c(/C=N/N5CCN(C)CC5)c(O)c4c3C2=O)NC(=O)/C(C)=C\C=C\[C@H](C)[C@H](O)[C@@H](C)[C@@H](O)[C@@H](C)[C@H](OC(C)=O)[C@@H]1C [Rifampicin]
- MIC ([21]; 336 h): < 12.5 µg/mL

Molecule: CNC1C(OC2OC(CO)C(O)C(O)C2O)OC2CC(N)C(OC3C(N)CC(N)C(O)C3O)OC2C1O (stereo not drawn) [Saccharocin]
- Solubility (Solubility; [22]): insoluble
- Solubility (Solubility; water): soluble
- MIC [1]: 6.3 µg/mL (≈ 11.7 µM)
- MIC (Proteus rettgeri ACR): 3.1 µg/mL (≈ 5.73 µM)
- MIC [2]: 25 µg/mL (≈ 46.2 µM)
- MIC [3]: 0.8 µg/mL (≈ 1.48 µM)
- MIC [4]: 12.5 µg/mL (≈ 23.1 µM)
- MIC (Proteus morganii 0239): 6.3 µg/mL (≈ 11.7 µM)
- MIC (Shigella sonnei E33): 6.3 µg/mL (≈ 11.7 µM)
- MIC [5]: 6.3 µg/mL (≈ 11.7 µM)
- MIC [6]: 6.3 µg/mL (≈ 11.7 µM)
- MIC [7]: 6.3 µg/mL (≈ 11.7 µM)
- MIC [8]: 3.1 µg/mL (≈ 5.73 µM)
- MIC [9]: 25 µg/mL (≈ 46.2 µM)
- MIC [10]: 3.1 µg/mL (≈ 5.73 µM)
- MIC [11]: 6.3 µg/mL (≈ 11.7 µM)
- MIC [12]: 6.3 µg/mL (≈ 11.7 µM)
- MIC (Serratia marcescens): 6.3 µg/mL (≈ 11.7 µM)
- MIC [13]: > 100 µg/mL
- MIC (Escherichia coli W3630): 1.6 µg/mL (≈ 2.96 µM)
- MIC [14]: 6.3 µg/mL (≈ 11.7 µM)
- MIC [15]: 12.5 µg/mL (≈ 23.1 µM)
- MIC (Pseudomonas putida 1842): 25 µg/mL (≈ 46.2 µM)
- MIC [16]: 12.5 µg/mL (≈ 23.1 µM)
- MIC (Pseudomonas aeruginosa): 25 µg/mL (≈ 46.2 µM)
- MIC [17]: 12.5 µg/mL (≈ 23.1 µM)
- MIC [18]: 50 µg/mL (≈ 92.5 µM)
- MIC [19]: > 100 µg/mL
- MIC [20]: 25 µg/mL (≈ 46.2 µM)

Molecule: [H]/N=C(/N)N[C@H]1[C@H](O)[C@@H](O)[C@H](O[C@@H]2O[C@@H](C)[C@](O)(C=O)[C@H]2O[C@@H]2O[C@@H](CO)[C@H](O)[C@@H](O)[C@@H]2NC)[C@@H](N/C(N)=N\[H])[C@@H]1O [Streptomycin]
- MIC [21, 23]: 25 µg/mL (≈ 43 µM)

Molecule: NC[C@H]1O[C@H](O[C@H]2[C@H](O)[C@@H](O[C@H]3O[C@H](CO)[C@@H](O)[C@H](N)[C@H]3O)[C@H](N)C[C@@H]2N)[C@H](N)C[C@@H]1O [Tobramycin]
- MIC [21, 23]: > 100 µg/mL

Molecule: Gentamicin
- MIC [21, 24]: > 100 µg/mL

Molecule: Neomycin
- MIC [21, 24]: 100 µg/mL
